Laboratory results reported in PubChem BioAssay (NCI).
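Exposure lasted 48 hours, with cells grown in 96-well plates and compounds tested at five concentrations. At the TGI there is no net growth.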

What was measured:
Experiment in all cases: growth of human tumour cells (NCI), 48 h
SF-268 CNS = system: SF-268 CNS
NCI-H23 lung = system: NCI-H23 lung
HOP-92 NSCLC = system: HOP-92 NSCLC
HT29 colon = system: HT29 colon
TK-10 renal = system: TK-10 renal
MOLT-4 leukemia = system: MOLT-4 leukemia
UACC-62 melanoma = system: UACC-62 melanoma
NCI-H460 lung = system: NCI-H460 lung
SF-295 CNS = system: SF-295 CNS
COLO 205 colon = system: COLO 205 colon
786-0 renal = system: 786-0 renal
ACHN renal = system: ACHN renal
SK-MEL-5 melanoma = system: SK-MEL-5 melanoma
T-47D breast = system: T-47D breast
CAKI-1 renal = system: CAKI-1 renal
OVCAR-3 ovarian = system: OVCAR-3 ovarian

| Structure (SMILES) | TGI (SF-268 CNS) [µM] | TGI (NCI-H23 lung) [µM] | TGI (HOP-92 NSCLC) [µM] | TGI (HT29 colon) [µM] | TGI (TK-10 renal) [µM] | TGI (MOLT-4 leukemia) [µM] | TGI (UACC-62 melanoma) [µM] | TGI (NCI-H460 lung) [µM] | TGI (SF-295 CNS) [µM] | TGI (COLO 205 colon) [µM] | TGI (786-0 renal) [µM] | TGI (ACHN renal) [µM] | TGI (SK-MEL-5 melanoma) [µM] | TGI (T-47D breast) [µM] | TGI (CAKI-1 renal) [µM] | TGI (OVCAR-3 ovarian) [µM] |
| --- | --- | --- | --- | --- | --- | --- | --- | --- | --- | --- | --- | --- | --- | --- | --- | --- |
| CCCCCc1c2nc(c(CCCCC)c3ccc([nH]3)c(CCCCC)c3ccc([nH]3)c(CCCCC)c3nc1C=C3)C=C2 | > 100 | > 100 | > 100 | > 100 | > 100 | > 100 | > 100 | > 100 | > 100 | > 100 | > 100 | > 100 | > 100 | > 100 | > 100 | > 100 |
| Cc1cc2c(s1)C(=O)c1sccc1C2=O | 2.09 | 0.36 | 2.97 | 4.3 | 6.91 | > 22.4 | 0.524 | 3.23 | 1.15 | 3.36 | 3.26 | 2.23 | 0.301 | 3.02 | 3.17 | 2.19 |
| CC1C[C@]2(C)C(=S)Nc3ccccc3[C@@H]2Nc2ccccc21 (some centres not stated) | 16.4 | 33.9 | 25.2 | 26.6 | 39.5 | 56.1 | 34.4 | 29.6 | 37.9 | 33.8 | 34.1 | 39.5 | 31.7 | 41 | 79 | 32.1 |
| O=S1(=O)CCN(Cc2ccccc2)/C1=N\S(=O)(=O)c1ccc(Cl)cc1 | 31.4 | 35.3 | 35.3 | 32.6 | 31 | 49.9 | 32 | 48 | > 100 | 34.3 | 34.5 | 33.1 | 41.9 | 39.5 | 33.2 | 36.1 |
| O=c1c2cccnc2nc2ccc3c[nH][nH]c3c12 | > 10 | > 10 | > 10 | > 10 | > 10 | > 10 | > 10 | > 10 | > 10 | > 10 | > 10 | > 10 | > 10 | > 10 | > 10 | > 10 |
| COc1ccc(OC)c2nc3c(C(=O)NCCN(C)C)cccc3nc12 | 27.6 | 25.5 | 50.2 | > 44.3 | 46.8 | 17.6 | > 49.3 | 21.5 | 25.6 | 11.9 | > 76.3 | > 100 | 14.1 | > 100 | > 74 | 42.3 |
| C/C=C(/C)C(=O)O[C@H]1C(C)=C[C@]23C(=O)[C@@H](C=C(COC(C)=O)[C@@H](O)[C@]12O)[C@H]1[C@@H](C[C@H]3C)[C@@]1(C)OC(=O)/C(C)=C\C | 4.73 | 5.19 | 6.34 | 1.49 | 7.69 | 3.56 | 5.69 | 4.09 | 5.01 | 3.8 | 8.93 | 4.39 | 3.84 | 3.29 | 6.14 | 5.99 |
